Source: PubChem BioAssay (NCI)
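These data come from cells grown in 96-well plates and exposed to compound for 48 hours at five concentrations. Definition used: TGI = concentration required for complete inhibition of growth.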

What was measured:
Test in all cases: DTP human tumour cell line panel, 48 h
ACHN renal = system: ACHN renal
SW-620 colon = system: SW-620 colon
K-562 leukemia = system: K-562 leukemia
HL-60(TB) leukemia = system: HL-60(TB) leukemia
PC-3 prostate = system: PC-3 prostate
NCI/ADR-RES ovarian = system: NCI/ADR-RES ovarian
SK-MEL-5 melanoma = system: SK-MEL-5 melanoma
NCI-H226 lung = system: NCI-H226 lung
DU-145 prostate = system: DU-145 prostate
SK-MEL-2 melanoma = system: SK-MEL-2 melanoma
MCF7 breast = system: MCF7 breast
786-0 renal = system: 786-0 renal
SK-OV-3 ovarian = system: SK-OV-3 ovarian
M14 melanoma = system: M14 melanoma
LOX IMVI melanoma = system: LOX IMVI melanoma
CCRF-CEM leukemia = system: CCRF-CEM leukemia
SNB-19 CNS = system: SNB-19 CNS
SNB-75 CNS = system: SNB-75 CNS
U251 CNS = system: U251 CNS
SF-539 CNS = system: SF-539 CNS
NCI-H522 lung = system: NCI-H522 lung
RXF 393 renal = system: RXF 393 renal
HT29 colon = system: HT29 colon
OVCAR-3 ovarian = system: OVCAR-3 ovarian
HOP-62 NSCLC = system: HOP-62 NSCLC
MALME-3M melanoma = system: MALME-3M melanoma
MOLT-4 leukemia = system: MOLT-4 leukemia
EKVX NSCLC = system: EKVX NSCLC
IGROV1 ovarian = system: IGROV1 ovarian
COLO 205 colon = system: COLO 205 colon
KM12 colon = system: KM12 colon
BT-549 breast = system: BT-549 breast
OVCAR-5 ovarian = system: OVCAR-5 ovarian
NCI-H460 lung = system: NCI-H460 lung
UACC-62 melanoma = system: UACC-62 melanoma
UACC-257 melanoma = system: UACC-257 melanoma
SK-MEL-28 melanoma = system: SK-MEL-28 melanoma
SR leukemia = system: SR leukemia
OVCAR-8 ovarian = system: OVCAR-8 ovarian
CAKI-1 renal = system: CAKI-1 renal
MDA-N = system: MDA-N
OVCAR-4 ovarian = system: OVCAR-4 ovarian
HCT-15 colon = system: HCT-15 colon
A549 NSCLC = system: A549 NSCLC
NCI-H23 lung = system: NCI-H23 lung
HCC-2998 colon = system: HCC-2998 colon
RPMI-8226 leukemia = system: RPMI-8226 leukemia
SF-268 CNS = system: SF-268 CNS
SN12C renal = system: SN12C renal
HOP-92 NSCLC = system: HOP-92 NSCLC
TK-10 renal = system: TK-10 renal
HCT-116 colon = system: HCT-116 colon
SF-295 CNS = system: SF-295 CNS
UO-31 renal = system: UO-31 renal
MDA-MB-435 = system: MDA-MB-435
MDA-MB-231 breast = system: MDA-MB-231 breast
HS 578T breast = system: HS 578T breast
A498 renal = system: A498 renal

SMILES: CCOC(=O)C1OC(=O)CC1C1(C(=O)OCC)C=CC(=O)O1 (stereo not drawn)
- TGI (ACHN renal): > 100 µM
- TGI (SW-620 colon): > 100 µM
- TGI (K-562 leukemia): > 100 µM
- TGI (HL-60(TB) leukemia): > 100 µM
- TGI (PC-3 prostate): > 100 µM
- TGI (NCI/ADR-RES ovarian): > 100 µM
- TGI (SK-MEL-5 melanoma): > 100 µM
- TGI (NCI-H226 lung): > 100 µM
- TGI (DU-145 prostate): > 100 µM
- TGI (SK-MEL-2 melanoma): > 100 µM
- TGI (MCF7 breast): > 100 µM
- TGI (786-0 renal): > 100 µM
- TGI (SK-OV-3 ovarian): > 100 µM
- TGI (M14 melanoma): > 100 µM
- TGI (LOX IMVI melanoma): 93.3 µM
- TGI (CCRF-CEM leukemia): > 100 µM
- TGI (SNB-19 CNS): > 100 µM
- TGI (SNB-75 CNS): > 100 µM
- TGI (U251 CNS): > 100 µM
- TGI (SF-539 CNS): > 100 µM
- TGI (NCI-H522 lung): > 100 µM
- TGI (RXF 393 renal): > 100 µM
- TGI (HT29 colon): > 100 µM
- TGI (OVCAR-3 ovarian): > 100 µM
- TGI (HOP-62 NSCLC): > 100 µM
- TGI (MALME-3M melanoma): > 100 µM
- TGI (MOLT-4 leukemia): > 100 µM
- TGI (EKVX NSCLC): > 100 µM
- TGI (IGROV1 ovarian): > 100 µM
- TGI (COLO 205 colon): > 100 µM
- TGI (KM12 colon): > 100 µM
- TGI (BT-549 breast): > 100 µM
- TGI (OVCAR-5 ovarian): > 100 µM
- TGI (NCI-H460 lung): 58.1 µM
- TGI (UACC-62 melanoma): > 100 µM
- TGI (UACC-257 melanoma): > 100 µM
- TGI (SK-MEL-28 melanoma): > 100 µM
- TGI (SR leukemia): > 100 µM
- TGI (OVCAR-8 ovarian): > 100 µM
- TGI (CAKI-1 renal): > 100 µM
- TGI (MDA-N): > 100 µM
- TGI (OVCAR-4 ovarian): > 100 µM
- TGI (HCT-15 colon): > 100 µM
- TGI (A549 NSCLC): > 100 µM
- TGI (NCI-H23 lung): > 100 µM
- TGI (HCC-2998 colon): > 100 µM
- TGI (RPMI-8226 leukemia): > 100 µM
- TGI (SF-268 CNS): > 100 µM
- TGI (SN12C renal): > 100 µM
- TGI (HOP-92 NSCLC): > 100 µM
- TGI (TK-10 renal): > 100 µM
- TGI (HCT-116 colon): > 100 µM
- TGI (SF-295 CNS): > 100 µM
- TGI (UO-31 renal): > 100 µM

SMILES: CC1CC/C(=C\c2ccc(F)cc2)C2=C1C(c1ccc(F)cc1)n1c(s/c(=C/c3cccc(Br)c3)c1=O)=N2 (stereo not drawn)
- TGI (ACHN renal): > 100 µM
- TGI (SW-620 colon): > 100 µM
- TGI (K-562 leukemia): > 100 µM
- TGI (HL-60(TB) leukemia): > 100 µM
- TGI (PC-3 prostate): > 100 µM
- TGI (SK-MEL-5 melanoma): > 100 µM
- TGI (DU-145 prostate): > 100 µM
- TGI (SK-MEL-2 melanoma): > 100 µM
- TGI (MCF7 breast): > 100 µM
- TGI (786-0 renal): > 100 µM
- TGI (SK-OV-3 ovarian): > 100 µM
- TGI (M14 melanoma): > 100 µM
- TGI (LOX IMVI melanoma): > 100 µM
- TGI (CCRF-CEM leukemia): > 100 µM
- TGI (SNB-19 CNS): > 100 µM
- TGI (SNB-75 CNS): > 100 µM
- TGI (MDA-MB-435): > 100 µM
- TGI (U251 CNS): > 100 µM
- TGI (RXF 393 renal): > 100 µM
- TGI (HT29 colon): > 100 µM
- TGI (HOP-62 NSCLC): > 100 µM
- TGI (MOLT-4 leukemia): > 100 µM
- TGI (EKVX NSCLC): > 100 µM
- TGI (IGROV1 ovarian): > 100 µM
- TGI (KM12 colon): > 100 µM
- TGI (OVCAR-5 ovarian): > 100 µM
- TGI (UACC-62 melanoma): > 100 µM
- TGI (UACC-257 melanoma): > 100 µM
- TGI (SK-MEL-28 melanoma): > 100 µM
- TGI (SR leukemia): > 100 µM
- TGI (OVCAR-8 ovarian): > 100 µM
- TGI (MDA-MB-231 breast): > 100 µM
- TGI (CAKI-1 renal): > 100 µM
- TGI (MDA-N): > 100 µM
- TGI (HCT-15 colon): > 100 µM
- TGI (A549 NSCLC): > 100 µM
- TGI (HS 578T breast): > 100 µM
- TGI (RPMI-8226 leukemia): > 100 µM
- TGI (SF-268 CNS): > 100 µM
- TGI (SN12C renal): > 100 µM
- TGI (HOP-92 NSCLC): > 100 µM
- TGI (TK-10 renal): > 100 µM
- TGI (A498 renal): > 100 µM
- TGI (HCT-116 colon): > 100 µM
